The values below come from patent US20230134003A1, “METHOD AND APPARATUS FOR CLINICAL TESTING” (Lightcast Discovery Ltd, priority 2019, published 2023).

The test deals with sample strain of E. coli bacteria. Kind of test: Panel merge and MIC determination in microdroplets on oEWOD chip. It is filed as cell-based. Particulars: gentamicin in tryptic soy broth (TSB) droplets merged with droplets of 1-3 bacteria; growth pattern observed within three hours of reducing the concentration. Here is the method: Droplets were paired together so that the post-merge droplets were all roughly of uniform size. Every third droplet was labelled as a control and remained unpaired. The smaller droplets in this example contained the antibiotic gentamicin at a concentration of 500 ng/mL in tryptic soy broth (TSB), whilst each of the larger droplets contained 1-3 bacteria in TSB. […] Within three hours of reducing the concentration, a robust growth behaviour pattern was observed, allowing for a determination of the MIC. In this particular case, the MIC was determined to lie at approximately 300 pg/mL.

On to gentamicin, for which the MIC result is “approximately 300 pg/mL”.
